Measured values from US9481670B2, “Triazine compounds” (Sphaera Pharma PTE. Ltd., priority 2011, dated 2016).

Target: T1, PI3K alpha (Homo sapiens, UniProt P42336)
T1 construct: purchased Millipore Upstate
Assay: P110 Alpha TR-FRET Assay (PI3K alpha kinase assay, HTRF Transcreener ADP Assay)
Format: biochemical
Conditions: PI3K (WT)
Method: PI3K alpha kinase assay may be done using HTRF Transcreener ADP Assay (Cisbio).
Composition of the reaction buffer was as follows 50 mM HEPES, pH 7.5, 5 mM MgCl2, 1 mM DTT, 30 μM Na3VO4. PI3 Kinase was procured from Millipore Upstate. […] ATP was used at final concentration of 10 μM. Corning 384 well white plates were used for the assay.
2 μl of diluted enzyme (50 ng), 3 μl of diluted compound and 5 μl of buffer were added, mixed then incubated for 20 minutes with shaking at 400 rpm. 3 μl of substrate (10 μM of ATP and 5 μM PIP2) were added to initiate the reaction. The samples were incubated for 20 min. At the end of the reaction time 10 μl of the Detection mix (5 μl of ADP-D2 and 5 μl of Anti-ADP-Cryptate) was added and the contents were incubated for 1 h. The reaction plate was directly read in an Envision Multilabel Plate Reader.

T1 sequence (P42336 whole entry): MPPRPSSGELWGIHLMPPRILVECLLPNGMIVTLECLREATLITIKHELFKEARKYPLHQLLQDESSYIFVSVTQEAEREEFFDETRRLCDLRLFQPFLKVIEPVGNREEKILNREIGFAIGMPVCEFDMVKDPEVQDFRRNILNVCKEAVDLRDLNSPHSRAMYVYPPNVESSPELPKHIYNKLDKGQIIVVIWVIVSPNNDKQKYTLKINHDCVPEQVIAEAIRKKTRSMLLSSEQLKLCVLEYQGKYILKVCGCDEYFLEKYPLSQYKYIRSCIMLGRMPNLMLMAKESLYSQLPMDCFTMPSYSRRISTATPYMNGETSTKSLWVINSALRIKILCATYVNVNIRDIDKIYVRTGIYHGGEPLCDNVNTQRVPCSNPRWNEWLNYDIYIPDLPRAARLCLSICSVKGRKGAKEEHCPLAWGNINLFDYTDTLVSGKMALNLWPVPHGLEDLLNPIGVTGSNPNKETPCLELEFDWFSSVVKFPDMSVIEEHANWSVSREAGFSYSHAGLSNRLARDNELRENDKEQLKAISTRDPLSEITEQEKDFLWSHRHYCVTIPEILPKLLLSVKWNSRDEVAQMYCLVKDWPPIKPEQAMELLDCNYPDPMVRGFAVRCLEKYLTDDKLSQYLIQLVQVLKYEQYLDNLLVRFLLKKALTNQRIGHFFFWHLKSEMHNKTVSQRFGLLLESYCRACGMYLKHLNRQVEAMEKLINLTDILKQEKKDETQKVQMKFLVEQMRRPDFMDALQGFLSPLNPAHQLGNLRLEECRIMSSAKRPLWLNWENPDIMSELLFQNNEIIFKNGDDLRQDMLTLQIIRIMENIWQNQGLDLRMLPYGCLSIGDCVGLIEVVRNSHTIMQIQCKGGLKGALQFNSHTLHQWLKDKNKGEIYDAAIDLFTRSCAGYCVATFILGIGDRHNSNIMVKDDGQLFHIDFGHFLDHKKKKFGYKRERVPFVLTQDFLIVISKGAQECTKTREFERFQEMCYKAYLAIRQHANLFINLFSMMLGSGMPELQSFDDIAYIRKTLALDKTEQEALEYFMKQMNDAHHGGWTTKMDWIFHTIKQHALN
T1 sequence (P27986 whole entry partner): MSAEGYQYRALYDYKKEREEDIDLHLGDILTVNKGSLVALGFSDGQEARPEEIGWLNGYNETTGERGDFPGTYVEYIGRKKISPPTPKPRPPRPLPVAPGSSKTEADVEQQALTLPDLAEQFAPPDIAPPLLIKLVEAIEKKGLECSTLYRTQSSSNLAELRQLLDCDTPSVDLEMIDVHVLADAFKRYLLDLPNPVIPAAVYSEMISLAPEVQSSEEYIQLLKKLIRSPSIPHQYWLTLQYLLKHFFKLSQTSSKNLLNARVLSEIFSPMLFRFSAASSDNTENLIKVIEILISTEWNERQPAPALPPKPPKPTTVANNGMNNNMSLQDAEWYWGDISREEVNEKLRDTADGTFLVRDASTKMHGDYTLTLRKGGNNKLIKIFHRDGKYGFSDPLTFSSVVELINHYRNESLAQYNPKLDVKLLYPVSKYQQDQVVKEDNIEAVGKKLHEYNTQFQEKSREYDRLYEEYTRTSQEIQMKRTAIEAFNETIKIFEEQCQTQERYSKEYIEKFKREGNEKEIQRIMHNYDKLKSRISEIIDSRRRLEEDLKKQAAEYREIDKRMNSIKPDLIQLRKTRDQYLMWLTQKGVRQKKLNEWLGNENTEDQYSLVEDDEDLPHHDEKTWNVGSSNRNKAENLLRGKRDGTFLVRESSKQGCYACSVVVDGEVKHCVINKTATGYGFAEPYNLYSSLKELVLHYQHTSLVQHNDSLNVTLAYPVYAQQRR

| IC50 | Compound |
| --- | --- |
| < 5 µM | O=C1CCc2cc(Oc3nc(-c4cccc5[nH]ncc45)nc(N4CCOCC4)n3)ccc2N1 [Compound 1063, 6-14-{[4-1-(1H-indazol-4-yl)-6-5-(morpholin-4-yl)-1,3,5-triazin-2-yl]oxy}-1,2,3,4-tetrahydroquinolin-2-one] |
| < 5 µM | CN(C)C(=O)Cc1cccc(Oc2nc(-c3ccc(N)nc3)nc(N3CCOCC3)n2)c1 [Compound 1013, 2-26-(3-20-{[4-1-(6-11-aminopyridin-3-yl)-6-5-(morpholin-4-yl)-1,3,5-triazin-2-yl]oxy}phenyl)-N,N-dimethylacetamide] |
| < 5 µM | CS(=O)(=O)N1CCC(COc2nc(-c3ccc(N)nc3)nc(N3CCOCC3)n2)CC1 [Compound 1023, 5-(4-((1-(methylsulfonyl)piperidin-4-yl)methoxy)-6-morpholino-1,3,5-triazin-2-yl)pyridin-2-amine] |
| < 5 µM | CNC(=O)c1ccc(Oc2nc(-c3cnc(N)s3)nc(N3CCOCC3)n2)cc1 [Compound 1082] |
| < 5 µM | c1ccc(CN2CCC(Oc3nc(-c4cccc5[nH]ncc45)nc(N4CCOCC4)n3)CC2)cc1 [Compound 1115, 4-(4-((1-benzylpiperidin-4-yl)oxy)-6-(1H-indazol-4-yl)-1,3,5-triazin-2-yl)morpholine] |
| < 5 µM | CS(=O)(=O)N1CCC(Oc2nc(-c3cccc4[nH]ncc34)nc(N3CCOCC3)n2)CC1 [Compound 1102, 4-7-{4-3-[(1-25-methanesulfonylpiperidin-4-yl)oxy]-6-5-(morpholin-4-yl)-1,3,5-triazin-2-yl}-1H-indazole] |
| < 5 µM | CN(C)C(=O)c1ccc(Oc2nc(-c3cnc(N)s3)nc(N3C4CCC3COC4)n2)cc1 [Compound 1001, 4-8-{[4-1-(2-11-amino-1,3-thiazol-5-yl)-6-5-{3-oxa-8-azabicyclo[3.2.1]octan-8-yl}-1,3,5-triazin-2-yl]oxy}-N,N-dimethylbenzamide] |
| > 5 µM | CN(C)C(=O)CNc1nc(-c2cccc(C(F)F)c2)nc(N2CCOCC2)n1 [Compound 1137, 2-((4-(3-(difluoromethyl)phenyl)-6-morpholino-1,3,5-triazin-2-yl)amino)-N,N-dimethylacetamide] |
| < 5 µM | Nc1ncc(-c2nc(N3CCOCC3)nc(N3CCN(S(N)(=O)=O)CC3)n2)cn1 [Compound 1053, 4-6-[4-1-(2-16-aminopyrimidin-5-yl)-6-5-(morpholin-4-yl)-1,3,5-triazin-2-yl]piperazine-1-sulfonamide] |
| < 5 µM | O=C(O)c1cccc(Nc2nc(-c3cccc4[nH]ncc34)nc(N3CCOCC3)n2)c1 [Compound 1202, 3-((4-(1H-indazol-4-yl)-6-morpholino-1,3,5-triazin-2-yl)amino)benzoic acid] |
| < 5 µM | Fc1ccc(-c2nc(N3CCNCC3)nc(N3CCOCC3)n2)cn1 [Compound 1127, 2-1-(6-16-fluoropyridin-3-yl)-4-5-(morpholin-4-yl)-6-3-(piperazin-1-yl)-1,3,5-triazine] |
| < 5 µM | C[C@H]1COCCN1c1nc(Oc2ccc(C(=O)N(C)C)cc2)nc(-c2cnc(N)s2)n1 [Compound 1003, 4-9-{[4-1-(2-22-amino-1,3-thiazol-5-yl)-6-5-(3-25-methylmorpholin-4-yl)-1,3,5-triazin-2-yl]oxy}-N,N-dimethylbenzamide] |
| < 5 µM | C[C@H](Nc1nc(-c2ccc(N)nc2)nc(N2CCOCC2)n1)C(=O)N(C)C [Compound 1165, 2-((4-(6-aminopyridin-3-yl)-6-morpholino-1,3,5-triazin-2-yl)amino)-N,N-dimethylpropanamide] |
| < 5 µM | OC1CCN(c2nc(-c3cccc4[nH]ncc34)nc(N3CCOCC3)n2)CC1 [Compound 1220, 1-8-[4-1-(1H-indazol-4-yl)-6-5-(morpholin-4-yl)-1,3,5-triazin-2-yl]piperidin-4-ol] |

| Compound | IC50 |
| --- | --- |
| 2-8-[4-1,6-5-bis(morpholin-4-yl)-1,3,5-triazin-2-yl]-2H-indazole [Compound 1112] | < 5 µM |
